The results in this text go back to patent US20240247080A1, “GLP1/GIP/NPY2 RECEPTOR TRIPLE AGONISTS” (Boehringer Ingelheim International GmbH, priority 2022, published 2024).

Where two headings read alike, the source gives them in different places. Starred links: 1 amine or outer side, 2 acyl side, 3 side chain; linkers in the order of their positions; H or OH if unused. Non-standard residues stand in square brackets, D forms with d. Groups on a side chain read outwards from the residue. No end group written: not given here. *: point of attachment. C20 diacid = O=C(O)CCCCCCCCCCCCCCCCCCC(=O)*; C18 diacid = O=C(O)CCCCCCCCCCCCCCCCC(=O)*; γGlu = O=C(O)[C@H](CCC(=O)[*:2])N[*:1]; εLys = N[C@@H](CCCCN[*:1])C(=O)[*:2]; Tle = CC(C)(C)[C@H](N)C(=O)O; AEEA = NCCOCCOCC(=O)O; Aib = CC(C)(N)C(=O)O; Ahx = NCCCCCC(=O)O

Assay type in all cases: cell-based
Common to all, as to conditions: CreLuc reporter gene assay

One assay addresses T1, hGLP1R (Homo sapiens, UniProt P43220).
T1 construct: expressed in transfected cells; host or cells: HEK-293 cells carrying a CRE-luciferase reporter gene
Kind of assay: hGLP1R CreLuc reporter gene assay in 0.5% and 100% plasma. An outline of the steps:
(§1)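 HEK cells (GLP-1R, NPY2R) or CHO cells (GIPR) carrying a CRE-luciferase reporter, incubated 4 h at 37 °C with peptides in HBSS/20 mM HEPES pH 7.4 plus 0.5% human plasma, or in 100% plasma. Luminescence read; EC50 from 8-point variable-slope sigmoid fits.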

In a further assay the target is T2, hGIPR (Homo sapiens, UniProt P48546).
T2 construct: expressed in transfected cells; host or cells: CHO cells carrying a CRE-luciferase reporter gene
T2 sequence (P48546 22-466): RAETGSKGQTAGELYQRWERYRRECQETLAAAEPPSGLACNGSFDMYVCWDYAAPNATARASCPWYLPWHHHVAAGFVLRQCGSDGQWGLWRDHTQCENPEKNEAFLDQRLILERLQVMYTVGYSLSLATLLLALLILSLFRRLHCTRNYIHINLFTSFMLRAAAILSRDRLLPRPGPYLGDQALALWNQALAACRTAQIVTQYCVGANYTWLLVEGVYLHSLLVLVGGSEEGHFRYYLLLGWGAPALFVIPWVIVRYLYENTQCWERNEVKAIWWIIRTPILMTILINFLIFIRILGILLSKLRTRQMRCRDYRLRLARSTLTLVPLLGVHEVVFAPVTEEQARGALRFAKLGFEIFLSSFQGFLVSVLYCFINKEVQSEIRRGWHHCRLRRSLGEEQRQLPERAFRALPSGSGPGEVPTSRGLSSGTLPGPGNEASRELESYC
As to the kind of experiment: hGIPR CreLuc reporter gene assay in 0.5% and 100% plasma. The essentials:
as §1
On the technique in general: Reporter assays use an easily measured gene product as a stand-in for the process of interest.

For a further assay, the target named is T3, hNPY2R (Homo sapiens, UniProt P49146).
T3 construct: expressed in transfected cells; host or cells: HEK-293 cells carrying a CRE-luciferase reporter gene
T3 sequence (P49146 1-381): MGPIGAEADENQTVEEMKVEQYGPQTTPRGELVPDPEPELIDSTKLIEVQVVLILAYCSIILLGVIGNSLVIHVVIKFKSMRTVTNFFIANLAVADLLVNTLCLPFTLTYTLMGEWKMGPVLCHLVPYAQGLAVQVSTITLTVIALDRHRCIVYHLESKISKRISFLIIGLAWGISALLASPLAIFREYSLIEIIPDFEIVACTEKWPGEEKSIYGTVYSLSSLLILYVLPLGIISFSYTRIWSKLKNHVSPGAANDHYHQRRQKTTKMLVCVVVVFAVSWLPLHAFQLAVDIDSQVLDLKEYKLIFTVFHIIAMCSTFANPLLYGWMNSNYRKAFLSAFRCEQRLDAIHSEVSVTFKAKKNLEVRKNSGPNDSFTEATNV
As to the kind of experiment: hNPY2R CreLuc reporter gene assay in 0.5% and 100% plasma. An outline of the steps: as §1

Where [1] appears, read: 0.5% human plasma, read-out: hGLP1R 0.5% hP.
[2] abbreviates: 0.5% human plasma, read-out: hGIPR 0.5% hP.
The mark [3] stands for this setting: 100% human plasma, read-out: hGIPR 100% hP.
[4] abbreviates: 0.5% human plasma, read-out: hNPY2R 0.5% hP.
Where [5] appears, read: 100% human plasma, read-out: hNPY2R 100% hP.
The mark [6] stands for this setting: 100% human plasma, read-out: hGLP1R 100% hP.

T1 sequence (P43220 24-463): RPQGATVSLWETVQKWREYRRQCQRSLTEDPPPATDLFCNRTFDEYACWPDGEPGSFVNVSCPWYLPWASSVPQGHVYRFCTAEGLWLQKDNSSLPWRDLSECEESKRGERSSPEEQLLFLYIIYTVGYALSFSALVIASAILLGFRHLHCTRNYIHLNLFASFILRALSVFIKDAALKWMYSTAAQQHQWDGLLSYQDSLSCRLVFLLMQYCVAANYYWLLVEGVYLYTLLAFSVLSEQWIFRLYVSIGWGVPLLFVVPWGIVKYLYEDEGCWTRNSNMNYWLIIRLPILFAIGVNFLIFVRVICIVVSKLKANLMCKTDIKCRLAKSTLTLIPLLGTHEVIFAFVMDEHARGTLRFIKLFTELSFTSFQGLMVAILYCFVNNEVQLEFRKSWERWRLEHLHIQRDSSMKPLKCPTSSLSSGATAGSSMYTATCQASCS

Turning to “H-Y[Aib]EGTFTSDYSI[Aib]LEKQAQ[Aib]AFVEWLIK([εLys-γGlu-γGlu-γGlu-γGlu-γGlu-C20 diacid])GGPEEGASLRHYYNWLTRQRY-NH2 [Compound 230, Y-Aib-E-G-T-F-T-S-D-Y-S-I-Aib-L-E-K-Q-A-Q-Aib-A-F-V-E-W-L-I-K(1,3)-GGPEEGASLRHYYNWLTRQRY-NH2.C20DA-gGlu-gGlu-gGlu-gGlu-gGlu-eLys(1,2)]”, the EC50 at hGLP1R (setting [1]) worked out at 0.29 nM; at hGIPR (setting [2]) it was 0.28 nM; at hGIPR (setting [3]) it was 1.43 nM; on hNPY2R (setting [4]) it was 15.4 nM.

On to “H-Y[Aib]EGTFTSDYSI[Aib]LEKQAQ[Aib]AFVEWLIK([Ahx-γGlu-γGlu-γGlu-γGlu-γGlu-C20 diacid])GGPSEGASLRHYYNWLTRQRY-NH2 [Compound 301, Y-Aib-E-G-T-F-T-S-D-Y-S-I-Aib-L-E-K-Q-A-Q-Aib-A-F-V-E-W-L-I-K(1,3)-GGPSEGASLRHYYNWLTRQRY-NH2.C20DA-gGlu-gGlu-gGlu-gGlu-gGlu-AHX(1,2)]”, for which the EC50 was found to be 0.23 nM on hGLP1R (setting [1]), 0.58 nM at hGIPR (setting [2]), 3.27 nM on hGIPR (setting [3]) and 99.3 nM on hNPY2R (setting [5]).

Take “H-Y[Aib]EGTFTSDYSI[Aib]LEKQAQ[Aib]AFVQWLIK([AEEA-AEEA-γGlu-γGlu-γGlu-γGlu-γGlu-C20 diacid])GGPESGASLRHYYNWLTRQRY-NH2 [Compound 32, Y-Aib-E-G-T-F-T-S-D-Y-S-I-Aib-L-E-K-Q-A-Q-Aib-A-F-V-Q-W-L-I-K(1,3)-GGPESGASLRHYYNWLTRQRY-NH2.C20DA-gGlu-gGlu-gGlu-gGlu-gGlu-OEG-OEG(1,2)]”: the EC50 worked out at 0.07 nM at hGLP1R (setting [1]); 0.16 nM at hGIPR (setting [2]); 1.15 nM at hGIPR (setting [3]); 12.2 nM at hNPY2R (setting [4]); 49.3 nM on hNPY2R (setting [5]).

For “H-Y[Aib]EGTFTSDYSI[Aib]LEKQAQ[Aib]AFVQWLIK([AEEA-AEEA-γGlu-γGlu-γGlu-γGlu-γGlu-C20 diacid])GGPSEPASLRHYYNWLTRQRY-NH2 [Compound 111, Y-Aib-E-G-T-F-T-S-D-Y-S-I-Aib-L-E-K-Q-A-Q-Aib-A-F-V-Q-W-L-I-K(1,3)-GGPSEPASLRHYYNWLTRQRY-NH2.C20DA-gGlu-gGlu-gGlu-gGlu-gGlu-OEG-OEG(1,2)]”, the EC50 on hGLP1R (setting [1]) is 0.12 nM; on hGIPR (setting [2]), 0.55 nM; at hNPY2R (setting [4]), 13.4 nM; at hNPY2R (setting [5]), 36.8 nM.

As to “H-Y[Aib]EGTFTSDYSI[Aib]LELQAQ[Aib]AFVEWLIK([εLys-γGlu-γGlu-γGlu-γGlu-γGlu-γGlu-C20 diacid])GGPSSGASLRHYYNWLTRQRY-NH2 [Compound 209, Y-Aib-E-G-T-F-T-S-D-Y-S-I-Aib-L-E-L-Q-A-Q-Aib-A-F-V-E-W-L-I-K(1,3)-GGPSSGASLRHYYNWLTRQRY-NH2.C20DA-gGlu-gGlu-gGlu-gGlu-gGlu-gGlu-eLys(1,2)]”, the EC50 at hGLP1R (setting [1]) amounted to 0.48 nM; at hGLP1R (setting [6]) it was 16.7 nM; at hGIPR (setting [2]), 0.81 nM; on hNPY2R (setting [4]) it was 35.2 nM.

With “H-Y[Aib]EGTFTSDYSI[Aib]LEKQAQ[Aib]AFIEWLIK([γGlu-γGlu-γGlu-γGlu-C20 diacid])GGPSEGASLRHYYNWLTRQRY-NH2 [Compound 283, Y-Aib-E-G-T-F-T-S-D-Y-S-I-Aib-L-E-K-Q-A-Q-Aib-A-F-I-E-W-L-I-K(1,3)-GGPSEGASLRHYYNWLTRQRY-NH2.C20DA-gGlu-gGlu-gGlu-gGlu(1,2)]”, the EC50 was 0.13 nM at hGLP1R (setting [1]); 3.86 nM at hGLP1R (setting [6]); 0.23 nM at hGIPR (setting [2]); 1.86 nM at hGIPR (setting [3]); 14.7 nM at hNPY2R (setting [4]).

For the substance “H-Y[Aib]EGTFTSDYSI[Aib]LEKQAQ[Aib]AFVEWLIK([AEEA-AEEA-γGlu-γGlu-γGlu-γGlu-C18 diacid])GGPEEPASLRHYYNWLTRQRY-NH2 [Compound 161, Y-Aib-E-G-T-F-T-S-D-Y-S-I-Aib-L-E-K-Q-A-Q-Aib-A-F-V-E-W-L-I-K(1,3)-GGPEEPASLRHYYNWLTRQRY-NH2.C18DA-gGlu-gGlu-gGlu-gGlu-OEG-OEG(1,2)]”, the EC50 on hGLP1R (setting [1]) was 0.21 nM; at hGIPR (setting [2]), 0.14 nM; at hGIPR (setting [3]), 1.23 nM; on hNPY2R (setting [4]), 11.5 nM; on hNPY2R (setting [5]) it was 41.7 nM.

Turning to “H-Y[Aib]EGTFTSDYSI[Aib]LEKQAQ[Aib]AFVEWLIK([εLys-γGlu-γGlu-γGlu-γGlu-γGlu-γGlu-C20 diacid])GGPSSGASLRHYYNWLTRQR[Tle]-NH2 [Compound 191, Y-Aib-E-G-T-F-T-S-D-Y-S-I-Aib-L-E-K-Q-A-Q-Aib-A-F-V-E-W-L-I-K(1,3)-GGPSSGASLRHYYNWLTRQR-Tle-NH2.C20DA-gGlu-gGlu-gGlu-gGlu-gGlu-gGlu-eLys(1,2)]”, the EC50 at hGLP1R (setting [1]) was 0.17 nM; on hGIPR (setting [2]), 0.23 nM; at hGIPR (setting [3]), 2 nM; on hNPY2R (setting [4]), over 99.9 nM; on hNPY2R (setting [5]), over 999 nM.

As for “H-Y[Aib]EGTFTSDYSI[Aib]LEKQAQ[Aib]AFVEWLIK([γGlu-γGlu-γGlu-γGlu-γGlu-γGlu-C20 diacid])GGGSEYVSLRHYYNWLTRQRY-NH2 [Compound 65, Y-Aib-E-G-T-F-T-S-D-Y-S-I-Aib-L-E-K-Q-A-Q-Aib-A-F-V-E-W-L-I-K(1,3)-GGGSEYVSLRHYYNWLTRQRY-NH2.C20DA-gGlu-gGlu-gGlu-gGlu-gGlu-gGlu(1,2)]”, the values for the EC50 on hGLP1R (setting [1]), on hGIPR (setting [2]) and on hNPY2R (setting [4]) were 2.65 nM, 1.03 nM and 11 nM, respectively.

As to “H-Y[Aib]EGTFTSDYSI[Aib]LEEEAQ[Aib]AFVEWLIK([εLys-γGlu-γGlu-γGlu-γGlu-γGlu-γGlu-C20 diacid])GGPSSGASLRHYYNWLTRQRY-NH2 [Compound 66, Y-Aib-E-G-T-F-T-S-D-Y-S-I-Aib-L-E-E-E-A-Q-Aib-A-F-V-E-W-L-I-K(1,3)-GGPSSGASLRHYYNWLTRQRY-NH2.C20DA-gGlu-gGlu-gGlu-gGlu-gGlu-gGlu-eLys(1,2)]”, the EC50 at hGLP1R (setting [1]) was 0.24 nM; at hGLP1R (setting [6]) it was 11.6 nM; at hGIPR (setting [2]), 0.64 nM; on hNPY2R (setting [4]), 18.7 nM.

With “Y[Aib]EGTFTSDYSI[Aib]LEKQAQ[Aib]AFVQWLIK([Ahx-γGlu-γGlu-γGlu-γGlu-γGlu-γGlu-C18 diacid])GGPSEGASLRHYYNWLTRQRY-NH2 [Compound 245, Y-Aib-E-G-T-F-T-S-D-Y-S-I-Aib-L-E-K-Q-A-Q-Aib-A-F-V-Q-W-L-I-K(1,3)-GGPSEGASLRHYYNWLTRQRY-NH2.C18DA-gGlu-gGlu-gGlu-glu-gGlu-Glu-AHX(1,2)]”, the EC50 on hGLP1R (setting [1]) was determined as 0.09 nM; at hGIPR (setting [2]), 0.37 nM; on hNPY2R (setting [4]), 24.5 nM.

As for “H-Y[Aib]EGTFTSDYSI[Aib]LEKEAQ[Aib]KFVEWLIK([εLys-γGlu-γGlu-γGlu-γGlu-γGlu-γGlu-C20 diacid])GGPSSGASLRHYYNWLTRQRY-NH2 [Compound 46, Y-Aib-E-G-T-F-T-S-D-Y-S-I-Aib-L-E-K-E-A-Q-Aib-K-F-V-E-W-L-I-K(1,3)-GGPSSGASLRHYYNWLTRQRY-NH2.C20DA-gGlu-gGlu-gGlu-gGlu-gGlu-gGlu-eLys(1,2)]”, the EC50 was determined as 0.21 nM at hGLP1R (setting [1]); 0.2 nM at hGIPR (setting [2]); 1.21 nM at hGIPR (setting [3]); 10.2 nM on hNPY2R (setting [4]); 36 nM on hNPY2R (setting [5]).

With “H-Y[Aib]EGTFTSDYSI[Aib]LEKQAQ[Aib]AFVQWLIK([AEEA-AEEA-γGlu-γGlu-γGlu-γGlu-C18 diacid])GGPSEPASLRHYYNWLTRQRY-NH2 [Compound 173, Y-Aib-E-G-T-F-T-S-D-Y-S-I-Aib-L-E-K-Q-A-Q-Aib-A-F-V-Q-W-L-I-K(1,3)-GGPSEPASLRHYYNWLTRQRY-NH2.C18DA-gGlu-gGlu-gGlu-gGlu-OEG-OEG(1,2)]”, the EC50 on hGLP1R (setting [1]) is 0.11 nM; at hGLP1R (setting [6]), 3.07 nM; at hGIPR (setting [2]), 0.27 nM; at hGIPR (setting [3]) it was 0.94 nM; at hNPY2R (setting [4]), 12.4 nM; at hNPY2R (setting [5]), 24.9 nM.
